Legend:
[1] = tested on: Haematobia irritans; experiment: In vivo efficacy against Haematobia irritans in cattle, topical pour-on; conditions: for % Efficacy vs. Haematobia irritans at 5 h: 5 h after infestation; for % Efficacy vs. Haematobia irritans at 24 h: 24 h after infestation
Method: A representative compound of the invention (II-35) was evaluated for efficacy against 20 Haematobia irritans in cattle when applied topically. Four treatment groups and one untreated control group containing four animals each were formed. Treatment Group 1 was an untreated control and Treatment Group 5 was a positive control group treated with a pour-on product containing 5% (w/v) cypermethrin (Cypermil Pour-on). The animals in Treatment Groups 2, 3 and 4 were treated with a pour-on composition containing compound (II-35) to deliver doses of 20 mg/kg, 10 mg/kg and 5 mg/kg body weight, respectively. The pour-on formulations comprised a mixture of 20% (w/v), 10% (w/v) and 5% (w/v) of the active dissolved in a carrier comprising 50% (v/v)N-methylpyrrolidone, 5% (v/v) dimethyl isosorbide and qs with Miglyol® 840. All animals were infested with approximately 200 Haematobia irritans flies on Days 1, 7, 14 and 21. As the source of flies was natural and the amount of flies decreased, the infestations On Days 28 and 35 animals were with approximately 100 horn flies due to a lack of flies. Additionally, Treatment Groups 3 and 5 were not infested on Day 35, due to the lack of flies. The flies were counted and recorded five hours following infestation and on the following day (at 24 h). The counts done on Day 2 were at 48 hours after treatment.
The % efficacy (% reduction) of the each treatment group compared with the untreated control group is shown in Tables 2 and 3 below and in FIG. 1.

[2] = tested on: Haematobia irritans; experiment: as above; conditions: for % Efficacy vs. Haematobia irritans at 5 h: 5 h after infestation, Day 13

Question: What does the source list for C#Cc1ccc(CC(C#N)(C#N)c2ccc(F)cc2)cc1 [II-35]?
Answer: % Efficacy vs. Haematobia irritans at 5 h ([1]; pour-on 5 mg/kg (Group 4), Day 1): 99.5%; % Efficacy vs. Haematobia irritans at 5 h ([1]; pour-on 5 mg/kg (Group 4), Day 7): 98.3%; % Efficacy vs. Haematobia irritans at 5 h ([1]; pour-on 5 mg/kg (Group 4), Day 13): 93.2%; % Efficacy vs. Haematobia irritans at 5 h ([1]; pour-on 5 mg/kg (Group 4), Day 21): 80.0%; % Efficacy vs. Haematobia irritans at 5 h ([1]; pour-on 5 mg/kg (Group 4), Day 28): 64.1%; % Efficacy vs. Haematobia irritans at 5 h ([1]; pour-on 5 mg/kg (Group 4), Day 35): 51.5%; % Efficacy vs. Haematobia irritans at 24 h ([1]; pour-on 5 mg/kg (Group 4), Day 2): 100.0%; % Efficacy vs. Haematobia irritans at 24 h ([1]; pour-on 5 mg/kg (Group 4), Day 8): 99.7%; % Efficacy vs. Haematobia irritans at 24 h ([1]; pour-on 5 mg/kg (Group 4), Day 14): 100.0%; % Efficacy vs. Haematobia irritans at 24 h ([1]; pour-on 5 mg/kg (Group 4), Day 22): 93.5%; % Efficacy vs. Haematobia irritans at 24 h ([1]; pour-on 5 mg/kg (Group 4), Day 29): 95.5%; % Efficacy vs. Haematobia irritans at 24 h ([1]; pour-on 5 mg/kg (Group 4), Day 36): 88.1%; efficacy vs. Haematobia irritans ([1]; pour-on 5 mg/kg (Group 4), until Day 13, after 5 hours post infestation): above 93%; efficacy vs. Haematobia irritans ([1]; pour-on 5 mg/kg (Group 4), until Day 29, after 24 hours post infestation): above 93%; % Efficacy vs. Haematobia irritans at 5 h ([1]; pour-on 10 mg/kg (Group 3), Day 1): 98.9%; % Efficacy vs. Haematobia irritans at 5 h ([1]; pour-on 10 mg/kg (Group 3), Day 7): 98.2%; % Efficacy vs. Haematobia irritans at 5 h ([1]; pour-on 10 mg/kg (Group 3), Day 21): 68.3%; % Efficacy vs. Haematobia irritans at 5 h ([1]; pour-on 10 mg/kg (Group 3), Day 28): 65.6%; % Efficacy vs. Haematobia irritans at 24 h ([1]; pour-on 10 mg/kg (Group 3), Day 2): 100.0%; % Efficacy vs. Haematobia irritans at 24 h ([1]; pour-on 10 mg/kg (Group 3), Day 8): 100.0%; % Efficacy vs. Haematobia irritans at 24 h ([1]; pour-on 10 mg/kg (Group 3), Day 14): 100.0%; % Efficacy vs. Haematobia irritans at 24 h ([1]; pour-on 10 mg/kg (Group 3), Day 22): 93.1%; % Efficacy vs. Haematobia irritans at 24 h ([1]; pour-on 10 mg/kg (Group 3), Day 29): 69.2%; efficacy vs. Haematobia irritans ([1]; pour-on 10 mg/kg (Group 3), until Day 22, after 24 hours post infestation): above 93%; % Efficacy vs. Haematobia irritans at 5 h ([1]; pour-on 20 mg/kg (Group 2), Day 1): 97.8%; % Efficacy vs. Haematobia irritans at 5 h ([1]; pour-on 20 mg/kg (Group 2), Day 7): 99.2%; % Efficacy vs. Haematobia irritans at 5 h ([1]; pour-on 20 mg/kg (Group 2), Day 21): 86.6%; % Efficacy vs. Haematobia irritans at 5 h ([1]; pour-on 20 mg/kg (Group 2), Day 28): 85.0%; % Efficacy vs. Haematobia irritans at 5 h ([1]; pour-on 20 mg/kg (Group 2), Day 35): 65.8%; % Efficacy vs. Haematobia irritans at 24 h ([1]; pour-on 20 mg/kg (Group 2), Day 2): 100.0%; % Efficacy vs. Haematobia irritans at 24 h ([1]; pour-on 20 mg/kg (Group 2), Day 8): 98.3%; % Efficacy vs. Haematobia irritans at 24 h ([1]; pour-on 20 mg/kg (Group 2), Day 14): 100.0%; % Efficacy vs. Haematobia irritans at 24 h ([1]; pour-on 20 mg/kg (Group 2), Day 22): 97.9%; % Efficacy vs. Haematobia irritans at 24 h ([1]; pour-on 20 mg/kg (Group 2), Day 29): 96.9%; % Efficacy vs. Haematobia irritans at 24 h ([1]; pour-on 20 mg/kg (Group 2), Day 36): 85.6%; efficacy vs. Haematobia irritans ([1]; pour-on 20 mg/kg (Group 2), until Day 13, after 5 hours post infestation): above 93%; efficacy vs. Haematobia irritans ([1]; pour-on 20 mg/kg (Group 2), until Day 29, after 24 hours post infestation): above 93%; % Efficacy vs. Haematobia irritans at 5 h ([2]; pour-on 10 mg/kg (Group 3)): 93.8%; efficacy vs. Haematobia irritans ([2]; pour-on 10 mg/kg (Group 3), until Day 13, after 5 hours post infestation): above 93%; % Efficacy vs. Haematobia irritans at 5 h ([2]; pour-on 20 mg/kg (Group 2)): 97.7%
